Source: US20120322869A1, “ESTER COMPOUND AND USE THEREOF” (SUMITOMO CHEMICAL COMPANY, LIMITED, priority 2010, published 2012)

Columns and labels:
[1] = system: German cockroaches (Blattella germanica); assay: Spray knock-down test with 0.1% (w/v) oil solution on German cockroaches (Test Example 2); format: in vivo; conditions: adult Blattella germanica, 1.5 ml of 0.1% (w/v) oil solution sprayed
Experimental: Zero point one (0.1) part of the compound of the present inventions (1) and (2) was dissolved in 10 parts of isopropyl alcohol and the solution was mixed with 89.9 parts of deodorized kerosene to prepare a 0.1% (w/v) oil solution.
Ten adult German cockroaches (Blattella germanica, 5 males and 5 females) were released in a test container (diameter 8.75 cm, 7.5 cm high, the bottom face is made of 16 mesh metallic wire), the inner face on which butter was applied, and the container was set at the bottom of a test chamber (bottom face: 46 cm×46 cm, height: 70 cm).
Each 1.5 ml of the oil solution of the compound of the present invention (1) and (2) was sprayed using a spray gun at a pressure of 0.4 kg/cm^2 from 60 cm higher than the upper face of the container. Thirty seconds after the spraying, the container was pulled out from the chamber. Two minutes after spraying, the number of knocked-down […] was counted and a knock-down ratio was determined. A knocked-down ratio was calculated by the following equation.
Knocked-down ratio=(Number of knocked-down cockroaches/Number of test cockroaches)×100

[2] = system: American cockroaches (Periplaneta americana); assay: Spray knock-down test with 0.1% (w/v) oil solution on American cockroaches (Test Example 1); format: in vivo; conditions: adult Periplaneta americana, 1.5 ml of 0.1% (w/v) oil solution sprayed
Experimental: Zero point one (0.1) part of the compound of the present inventions (1) was dissolved in 10 parts of isopropyl alcohol and the solution was mixed with 89.9 parts of deodorized kerosene to prepare a 0.1% (w/v) oil solution.
Six adult American cockroaches (Periplaneta americana, 3 males and 3 females) were released in a test container (diameter 12.5 cm, 10 cm high, the bottom face is made of 16 mesh metallic wire), the inner face on which butter was applied, and the container was set at the bottom of a test chamber (bottom face: 46 cm×46 cm, height: 70 cm). Each 1.5 ml of the oil solution of the compound of the present invention (1) was sprayed using a spray gun at a pressure of 0.4 kg/cm^2 from 60 cm higher than the upper face of the container. Thirty seconds after the spraying, the container was pulled out from the chamber. After a prescribed time, the number of knocked-down cockroaches was counted and a knock-down ratio was determined (repeated twice). The knocked-down ratio was calculated by the following equation.
Knocked-down ratio (%) (Number of knocked-down cockroaches/Number of test cockroaches)×100

C=CCC1=C(C)C(OC(=O)[C@@H]2[C@@H](C=C(C#N)SC)C2(C)C)CC1=O (relative stereo) [compound of the present invention (2), 2-methyl-3-(2-propenyl)cyclopent-2-en-4-on-1-yl=(1R)-trans-3-[(1EZ)-2-cyano-2-(methylthio)ethenyl]-2,2-dimethylcyclopropanecarboxylate]
Knock-down ratio (%) 2 minutes after spraying [1]: 100%

C#CCC1=C(C)[C@@H](OC(=O)[C@@H]2[C@@H](/C=C(\C#N)SC)C2(C)C)CC1=O [compound of the present invention (1), (S)-2-methyl-3-(2-propynyl)cyclopent-2-en-4-on-1-yl=(1R)-trans-3-[(1E)-2-cyano-2-(methylthio)ethenyl]-2,2-dimethylcyclopropane carboxylate]
Knock-down ratio (%) 5 minutes after spraying [2]: 100%
Knock-down ratio (%) 2 minutes after spraying [1]: 100%
